Tests used:
[1] = Viscosity measurement (Brookfield DV-III rheometer); assay type: physicochemical
Protocol: (§1) Various disinfectant compositions were measured to determine associated viscosity, conductivity and/or delivery rate parameters. Viscosity measurements were conducted with a Brookfield DV-III rheometer using procedures well known to those skilled in the art. Conductivity measurements were taken using a conductivity meter (Accumet Basic AV30) instrument using a two cell conductivity probe (epoxy body with a cell constant of 1.0). Delivery rates were determined with a preferred electrostatic delivery apparatus, available through In-Vironmental Integrity, Inc. of Minneapolis, Minn. under the “Aromasys” trademark using standard procedures and protocols.

[2] = Conductivity measurement (Accumet Basic AV30, two cell probe); assay type: physicochemical
Protocol: as §1

viscosity [1]: 51.5 cps
conductivity [2]: 0.354 uS/cm
Compound: OCCOCCOCCO [triethylene glycol]

From patent US7674429B2, “Electrostatic disinfectant delivery” (JohnsonDiversey, Inc., priority 2001, dated 2010)
